Results published in patent US10947188B2, “Small molecule ferroptosis inducers” (THE TRUSTEES OF COLUMBIA UNIVERSITY IN THE CITY OF NEW YORK, priority 2016, dated 2021).

Tested on: HT-1080
Test: Modulatory profiling: Alamar Blue viability, lethal compound cotreated with death modulator (EC50, AUC); on AUC HT.BHA: reference of the scale not given here; on AUC HT.EGTA: reference of the scale not given here
Format: cell-based
Set-up: AUC, modulator HT.3MA / AUC, modulator HT.ALLN / AUC HT.ATA / AUC HT.ActD / AUC HT.BHA / AUC HT.BHT / AUC HT.BocD / AUC HT.CHX / AUC HT.Co2+ / AUC HT.DPQ / AUC HT.EGTA / AUC HT.Lmim / AUC HT.NAD+ / AUC HT.Nec-1 / AUC HT.SP600125 / AUC HT.TLCK / AUC HT.U0126: unit not given beside the values
Conditions: for AUC HT.ATA: HT-1080, modulator ATA; for AUC HT.ActD: HT-1080, modulator ActD; for AUC HT.BHA: HT-1080, modulator BHA; for AUC HT.BHT: HT-1080, modulator BHT; for AUC HT.BocD: HT-1080, modulator BocD; for AUC HT.CHX: HT-1080, modulator CHX; for AUC HT.Co2+: HT-1080, modulator Co2+; for AUC HT.CspA: HT-1080, modulator CspA; for AUC HT.DPQ: HT-1080, modulator DPQ; for AUC HT.EGTA: HT-1080, modulator EGTA; for AUC HT.Gd3+: HT-1080, modulator Gd3+; for AUC HT.LNAME: HT-1080, modulator LNAME; for AUC HT.Lmim: HT-1080, modulator Lmim; for AUC HT.NAD+: HT-1080, modulator NAD+; for AUC HT.NMMA: HT-1080, modulator NMMA; for HT.atoc (AUC) / HT.bCarotene (AUC) / HT.deferox (AUC) / HT.digoxin (AUC) / HT.trolox (AUC) / HT.zVAD (AUC) / EC50: HT-1080; for HT.atoc (AUC): modulator atoc; for HT.bCarotene (AUC): modulator bCarotene; for HT.deferox (AUC): modulator deferox; for HT.digoxin (AUC): modulator digoxin; for HT.trolox (AUC): modulator trolox; for HT.zVAD (AUC): modulator zVAD; for AUC, modulator HT.3MA / AUC, modulator HT.ALLN: HT-1080 cells, modulatory profile value (AUC); for AUC, modulator HT.3MA: lethal compound cotreated with modulator 3MA; for AUC, modulator HT.ALLN: lethal compound cotreated with modulator ALLN; for EC50: Homo sapiens, HT-1080, 48 h, 48 h

CC1CC2=C(CC1CNCCCN(C)C)C(C)(C)CCC2 (stereo not shown) [CIL26]
AUC HT.ATA: 0.04192 | AUC HT.ActD: −0.002488 | AUC HT.BHA: −0.1441 | AUC HT.BHT: −0.1215 | AUC HT.BocD: 0.008992 | AUC HT.CHX: −0.02052 | AUC HT.Co2+: −0.02744 | AUC HT.CspA: −0.04225 | AUC HT.DPQ: 0.02987 | AUC HT.EGTA: 0.009998 | AUC HT.Gd3+: −0.005334 | AUC HT.LNAME: 0.001215 | AUC HT.Lmim: −0.004 | AUC HT.NAD+: −0.01406 | AUC HT.NMMA: −0.009692 | HT.atoc (AUC): 0.04649 | HT.bCarotene (AUC): −0.03349 | HT.deferox (AUC): −0.1033 | HT.digoxin (AUC): −0.03641 | HT.trolox (AUC): −0.0327 | HT.zVAD (AUC): −0.01226 | AUC, modulator HT.3MA: 0.0321 | AUC, modulator HT.ALLN: 0.001592

Cc1ccc(O)c(/N=C/C=C/c2cccc(Br)c2)c1 [CIL27]
AUC HT.ATA: 0.04845 | AUC HT.ActD: 0.03171 | AUC HT.BHA: −0.0156 | AUC HT.BHT: −0.05537 | AUC HT.BocD: 0.003288 | AUC HT.CHX: 0.04576 | AUC HT.Co2+: 0.04606 | AUC HT.CspA: −0.03639 | AUC HT.DPQ: 0.02307 | AUC HT.EGTA: 0.02604 | AUC HT.Gd3+: −0.0168 | AUC HT.LNAME: 0.001204 | AUC HT.Lmim: −0.001055 | AUC HT.NAD+: −0.0034 | AUC HT.NMMA: −0.01331 | HT.atoc (AUC): 0.04362 | HT.bCarotene (AUC): −0.01166 | HT.deferox (AUC): 0.1441 | HT.digoxin (AUC): 0.001262 | HT.trolox (AUC): −0.05943 | HT.zVAD (AUC): −0.01508 | AUC, modulator HT.3MA: 0.0766 | AUC, modulator HT.ALLN: 0.1636

CC(C)=CCCC1=CCC(CNCCCN(C)C)C(C)C1 (stereo not shown) [CIL28]
AUC HT.ATA: 0.06113 | AUC HT.ActD: −0.01352 | AUC HT.BHA: −0.1362 | AUC HT.BHT: −0.1108 | AUC HT.BocD: 0.01462 | AUC HT.CHX: 0.0328 | AUC HT.Co2+: −0.03292 | AUC HT.CspA: −0.01858 | AUC HT.DPQ: 0.04404 | AUC HT.EGTA: 0.005868 | AUC HT.Gd3+: −0.02583 | AUC HT.LNAME: −0.0045 | AUC HT.Lmim: 0.001311 | AUC HT.NAD+: 0.007089 | AUC HT.NMMA: −0.009763 | HT.atoc (AUC): 0.1068 | HT.bCarotene (AUC): −0.03341 | HT.deferox (AUC): −0.04312 | HT.digoxin (AUC): −0.007104 | HT.trolox (AUC): −0.03025 | HT.zVAD (AUC): −0.009003 | AUC, modulator HT.3MA: 0.0937 | AUC, modulator HT.ALLN: 0.04719

O=C(/C=C/c1cccc(NC(=O)c2cccs2)c1)c1ccccc1 [CIL33]
AUC HT.ATA: 0.04655 | AUC HT.ActD: −0.03269 | AUC HT.BHA: −0.02938 | AUC HT.BHT: −0.1089 | AUC HT.BocD: 0.006307 | AUC HT.CHX: 0.06763 | AUC HT.Co2+: 0.1418 | AUC HT.CspA: −0.03213 | AUC HT.DPQ: 0.02728 | AUC HT.EGTA: −0.007461 | AUC HT.Gd3+: −0.02182 | AUC HT.LNAME: 0.003047 | AUC HT.Lmim: −0.007068 | AUC HT.NAD+: −0.0189 | AUC HT.NMMA: −0.002248 | HT.atoc (AUC): 0.04094 | HT.bCarotene (AUC): −0.01651 | HT.deferox (AUC): 0.1056 | HT.digoxin (AUC): −0.03413 | HT.trolox (AUC): −0.05079 | HT.zVAD (AUC): 0.03457 | AUC, modulator HT.3MA: 0.08789 | AUC, modulator HT.ALLN: 0.04123

COC(C)(C)C#CC(=O)c1cccc2ccccc12 [CIL34]
AUC HT.ATA: 0.05661 | AUC HT.ActD: −0.03224 | AUC HT.BHA: 0.01628 | AUC HT.BHT: −0.1102 | AUC HT.BocD: −0.007476 | AUC HT.CHX: 0.0461 | AUC HT.Co2+: 0.09926 | AUC HT.CspA: −0.02181 | AUC HT.DPQ: 0.0333 | AUC HT.EGTA: −0.002035 | AUC HT.Gd3+: −0.02283 | AUC HT.LNAME: −0.00517 | AUC HT.Lmim: −0.002139 | AUC HT.NAD+: −0.005535 | AUC HT.NMMA: −0.003031 | HT.atoc (AUC): 0.08125 | HT.bCarotene (AUC): 0.001321 | HT.deferox (AUC): 0.1115 | HT.digoxin (AUC): −0.01032 | HT.trolox (AUC): −0.02993 | HT.zVAD (AUC): 0.007148 | AUC, modulator HT.3MA: 0.1255 | AUC, modulator HT.ALLN: 0.1551

CN(C)CCCOS(=O)(=O)c1ccc(N2CCC(c3ccc(Cl)cc3)=N2)cc1 [CIL40]
AUC HT.ATA: 0.06692 | AUC HT.ActD: −0.06544 | AUC HT.BHA: −0.09372 | AUC HT.BHT: −0.1505 | AUC HT.BocD: 0.01176 | AUC HT.CHX: −0.02863 | AUC HT.Co2+: 0.04911 | AUC HT.CspA: −0.04697 | AUC HT.DPQ: 0.04908 | AUC HT.EGTA: −0.02642 | AUC HT.Gd3+: −0.0186 | AUC HT.LNAME: −0.01999 | AUC HT.Lmim: 0.0004825 | AUC HT.NAD+: −0.04749 | AUC HT.NMMA: −0.006901 | HT.atoc (AUC): 0.1232 | HT.bCarotene (AUC): −0.01785 | HT.deferox (AUC): −0.08111 | HT.digoxin (AUC): −0.03539 | HT.trolox (AUC): −0.02768 | HT.zVAD (AUC): 0.01717 | AUC, modulator HT.3MA: 0.0807 | AUC, modulator HT.ALLN: 0.1761

N/C(=N\OC(=O)C12CC3CC(CC(C3)C1)C2)c1ccccc1 [CIL41]
AUC HT.ATA: 0.02643 | AUC HT.ActD: −0.09343 | AUC HT.BHA: 0.1312 | AUC HT.BHT: 0.009338 | AUC HT.BocD: −0.01678 | AUC HT.CHX: −0.05459 | AUC HT.Co2+: 0.06389 | AUC HT.CspA: 9.4409E−05 | AUC HT.DPQ: 0.04282 | AUC HT.EGTA: 0.02946 | AUC HT.Gd3+: −0.02592 | AUC HT.LNAME: −0.0121 | AUC HT.Lmim: 0.1377 | AUC HT.NAD+: −0.008657 | AUC HT.NMMA: −0.01029 | HT.atoc (AUC): 0.316 | HT.bCarotene (AUC): −0.02182 | HT.deferox (AUC): 0.1795 | HT.digoxin (AUC): −0.09255 | HT.trolox (AUC): 0.161 | HT.zVAD (AUC): −0.0167 | effect of ferroptosis inhibitors (iron chelators and lipophilic antioxidants) on lethality in modulatory profiling (HT-1080 and BJeLR): suppression by canonical ferroptosis inhibitors | AUC, modulator HT.3MA: 0.04521 | AUC, modulator HT.ALLN: 0.09324 | EC50 (DMSO): 5.67 µM | EC50 (cotreated with MEK inh U0126): 20.9 µM | EC50 (cotreated with antioxidant Atoc): 50 µM | EC50 (cotreated with antioxidant BHA): 26 µM | EC50 (cotreated with antioxidant BHT): 12.6 µM | EC50 (cotreated with antioxidant Trolox): 23.4 µM | EC50 (cotreated with iron-chelator Deferoxamine): 124 µM | EC50 (cotreated with iron-chelator Lmim): 69.8 µM

O=P(Oc1ccccc1)(Oc1ccccc1)O[C@@H]1C=CS(=O)(=O)C1 [CIL44]
AUC HT.ATA: 0.0592 | AUC HT.ActD: 0.01649 | AUC HT.BHA: −0.02559 | AUC HT.BHT: −0.1007 | AUC HT.BocD: −0.0552 | AUC HT.CHX: 0.02874 | AUC HT.Co2+: −0.04658 | AUC HT.CspA: −0.01586 | AUC HT.DPQ: −0.01669 | AUC HT.EGTA: −0.007267 | AUC HT.Gd3+: −0.01147 | AUC HT.LNAME: −0.02505 | AUC HT.Lmim: −0.007614 | AUC HT.NAD+: −0.07144 | AUC HT.NMMA: −0.0419 | HT.atoc (AUC): 0.04386 | HT.bCarotene (AUC): −0.02012 | HT.deferox (AUC): 0.1041 | HT.digoxin (AUC): 0.01992 | HT.trolox (AUC): −0.02106 | HT.zVAD (AUC): 0.01751 | AUC, modulator HT.3MA: 0.07356 | AUC, modulator HT.ALLN: 0.1392
